Data taken from US10028966B2 (Avalyn Pharma Inc., priority 2014, dated 2018).
≈ marks a conversion by molar mass, not a printed value. Read-outs that look alike come from different tables or passages of the source.

Columns and labels:
[1] = 85% saturation pirfenidone formulations exposed to several temperatures (re-crystallization); type: physicochemical
Excerpt: However, in all cases pirfenidone eventually re-crystallized. This re-crystallization was not inhibited by pre-filtration of the sample.

[2] = Modeled human inhaled aerosol pirfenidone pharmacokinetics (FIG. 2, FIG. 5, Table 28)
Excerpt: More specifically, the oral route requires a large oral dose to achieve a relatively small lung tissue Cmax. Delivering a similar Cmax without the large systemic dose provides increased efficacy. However, further escalating this direct lung dose, which results in increased systemic exposure, reduces this effect. […] Specifically, a high lung tissue Cmax is important for lung tissue anti-fibrotic efficacy. However, this positive effect appears dependent upon an associated small plasma AUC; the larger the plasma AUC, the lower the efficacy. […] In practice, the oral route of administration is not capable of meeting this U-shaped-restricted dose response. Safety and tolerability prevent further dose escalation of the 801 mg/dose oral medicine (Esbriet®). […] To illustrate these findings, possible human lung tissue and plasma pharmacokinetics following tidal-breath-inhaled aerosol administration were again modeled (FIG. 5). […] These safety and/or tolerability restrictions may be associated with plasma AUC, plasma Cmax, gastrointestinal exposure or a combination of these events. […] However, this limitation could also be set as the plasma Cmax or a combination of these pharmacokinetic parameters.
Aerosol deliver parameters for the FIGS. 2 and 5 models were based on high-efficiency, mesh-based nebulizer characterization (Table 12). […] Respirable delivered dose (RDD) calculated by the product of fine particle fraction (FPF, %<5 microns) and inhaled mass. […] For this non-limiting example, a FPF of 78% and inhaled mass of 67% was used. Using these numbers, a 90 mg device-loaded dose may produce an RDD of about 47 mg (Table 26 and FIG. 2). […] For this non-limiting example, a FPF of 78% and inhaled mass of 67% was used. Using these numbers, a 230 mg device-loaded dose may produce an RDD of about 120 mg. […] This later dose was modeled to be delivered in 1 minute.
An additional clinical consideration is the rat plasma AUC showing non-efficacy in the bleomycin model. […] Only lower delivered doses show anti-fibrotic effect. Plasma AUCs obtained from higher intratracheal or oral doses appears to have similar non-efficacy or enhanced disease.

[3] = system: inflammasome activation in 264.7 macrophages; assay: Inflammasome first signal activation (LPS, secreted IL-1β); type: cell-based; conditions: Macrophage; read-out: fifty-percent inhibitory concentration (IC50), first-signal inflammasome activation
[4] = system: normal human pulmonary fibroblasts; assay: TGFβ1-induced fibroblast differentiation; type: cell-based; conditions: for IC50: Homo sapiens, Pulmonary fibroblast, read-out: IC50, TGFβ-induced fibroblast differentiation; for αSMA (Fluorescence): TGFβ +
Procedure: Briefly, 20 000 cells per well were seeded in black 96 well collagen coated plates and incubate overnight (approximately 24 hours) to allow adherence. […] Cultures were then incubated for 48 hours. […] Separate controls were included for diluted cultures containing TGFβ1 or media alone. At the end of incubation, cells were fixed and stained for imaging and fluorescence plate reader quantitation. Parallel cultures were assessed for cytotoxicity using the MTS dye assay.

[5] = cited from earlier work; for AUC over 0-18 hours / Cmax: human, plasma (Rubino et al., 2009)
CYP2C9 = target: T1, CYP2C9 (Homo sapiens, UniProt P11712); conditions: hepatic microsomes; cited from earlier work
T1 construct: In vitro metabolism studies with hepatic microsomes; from tissue; host or cells: hepatic microsomes
T1 sequence (P11712 whole entry): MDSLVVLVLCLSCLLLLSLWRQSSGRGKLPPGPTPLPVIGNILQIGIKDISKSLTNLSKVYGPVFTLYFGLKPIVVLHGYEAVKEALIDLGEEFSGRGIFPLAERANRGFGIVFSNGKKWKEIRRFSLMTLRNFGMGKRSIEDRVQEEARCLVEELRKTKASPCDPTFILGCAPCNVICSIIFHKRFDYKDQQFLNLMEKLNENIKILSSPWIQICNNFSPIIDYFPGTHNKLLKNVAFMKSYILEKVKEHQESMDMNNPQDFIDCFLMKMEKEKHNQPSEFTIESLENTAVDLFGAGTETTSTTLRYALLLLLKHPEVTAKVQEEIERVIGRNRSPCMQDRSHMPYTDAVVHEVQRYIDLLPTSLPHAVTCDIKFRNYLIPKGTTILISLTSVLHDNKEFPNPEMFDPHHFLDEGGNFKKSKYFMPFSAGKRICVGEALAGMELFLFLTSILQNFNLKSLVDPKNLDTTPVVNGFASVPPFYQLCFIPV

With `Cc1ccc(=O)n(-c2ccccc2)c1` [pirfenidone, 5-methyl-1-phenyl-2-(1H)-pyridone] the Recrystallization upon storage ([1]; overnight at 4° C., 23.0 mg/mL (85% saturation), 4% EtOH, 8% PG, 88% phosphate buffer (5 mM), pH 6.6) was “No”, the Recrystallization upon storage ([1]; overnight at 4° C., 29.5 mg/mL, 6% EtOH, 12% PG, 82% phosphate buffer (5 mM), pH 7.0) was “No” and the Recrystallization upon storage ([1]; overnight at 4° C., […], 8% EtOH, 16% PG, 76% phosphate buffer (5 mM), pH 7.0) was “No”. The Recrystallization upon storage ([1]; overnight at 15° C., 23.0 mg/mL (85% saturation), 4% EtOH, 8% PG, 88% phosphate buffer (5 mM), pH 6.6) was “No”, the Recrystallization upon storage ([1]; overnight at 15° C., 29.5 mg/mL, 6% EtOH, 12% PG, 82% phosphate buffer (5 mM), pH 7.0) was “No” and the Recrystallization upon storage ([1]; overnight at 15° C., […], 8% EtOH, 16% PG, 76% phosphate buffer (5 mM), pH 7.0) was “No”. The Recrystallization upon storage ([1]; overnight at 25° C., 23.0 mg/mL (85% saturation), 4% EtOH, 8% PG, 88% phosphate buffer (5 mM), pH 6.6) was “No”, the Recrystallization upon storage ([1]; overnight at 25° C., 27.2 mg/mL (saturation solubility), 4% EtOH, 8% PG, 88% phosphate buffer (5 mM), pH 6.6) was “Yes” and the Recrystallization upon storage ([1]; overnight at 25° C., 29.5 mg/mL, 6% EtOH, 12% PG, 82% phosphate buffer (5 mM), pH 7.0) was “No”. The Recrystallization upon storage ([1]; overnight at 25° C., 34.7 mg/mL, 6% EtOH, 12% PG, 82% phosphate buffer (5 mM), pH 7.0) was “Yes”, the Recrystallization upon storage ([1]; overnight at 25° C., 43.7 mg/mL, 8% EtOH, 16% PG, 76% phosphate buffer (5 mM), pH 7.0) was “Yes” and the Recrystallization upon storage ([1]; overnight at 25° C., […], 8% EtOH, 16% PG, 76% phosphate buffer (5 mM), pH 7.0) was “No”. For the same compound, the Recrystallization upon storage ([1]; overnight at −20° C., 23.0 mg/mL (85% saturation), 4% EtOH, 8% PG, 88% phosphate buffer (5 mM), pH 6.6, crystals re-dissolved at 25° C. without agitation) was “Yes^f”, the Recrystallization upon storage ([1]; overnight at −20° C., 29.5 mg/mL, 6% EtOH, 12% PG, 82% phosphate buffer (5 mM), pH 7.0, crystals re-dissolved at 25° C. without agitation) was “Yes^f” and the Recrystallization upon storage ([1]; overnight at −20° C., […], 8% EtOH, 16% PG, 76% phosphate buffer (5 mM), pH 7.0, crystals re-dissolved at 25° C. without agitation) was “Yes^f”. For the same compound, the “lung tissue Cmax compared to 801 mg oral dose” value ([2]; modeled human, 2.5 mg RDD inhaled over 1 minute) was “equivalent”, the “plasma AUC0-18hrs” value ([2]; modeled human, 29 mg RDD, 3 minute tidal-inhaled nebulized dose) was 13400 ng·h/mL and the “plasma AUC compared to 801 mg oral pirfenidone dose (with food)” value ([2]; modeled human, 120 mg RDD inhaled over 5 minutes) was “equivalent”. For the same compound, the “human lung tissue Cmax” value ([2]; modeled, 29 mg RDD, 3 minute tidal-inhaled nebulized dose) was 43.2 mcg/gram lung tissue, the IC50 [3] was about 25 µg/mL (≈ 135 µM) and the IC50 ([4]; 48 h) was about 25 µg/mL (≈ 135 µM). The IC50 [4] was about 125 µg/mL (≈ 675 µM), the “αSMA (Fluorescence)” value ([4]; Table 36, Long-term exposure (48 hours), pirfenidone 5 mcg/mL) was 4.72 and the “αSMA (Fluorescence)” value ([4]; Table 36, Long-term exposure (48 hours), pirfenidone 25 mcg/mL) was 4.04. For the same compound, the “αSMA (Fluorescence)” value ([4]; Table 36, Long-term exposure (48 hours), pirfenidone 125 mcg/mL) was 3.15, the “αSMA (Fluorescence)” value ([4]; Table 36, Long-term exposure (48 hours), pirfenidone 625 mcg/mL) was 2.47 and the “αSMA (Fluorescence)” value ([4]; Table 36, Short-term exposure, pirfenidone 5 mcg/mL) was 6.76. For the same compound, the “αSMA (Fluorescence)” value ([4]; Table 36, Short-term exposure, pirfenidone 25 mcg/mL) was 5.34, the “αSMA (Fluorescence)” value ([4]; Table 36, Short-term exposure, pirfenidone 625 mcg/mL) was 3.57 and the “αSMA (Fluorescence)” value ([4]; Table 37 (broader dose-response), Short-term exposure, pirfenidone 1 mcg/mL) was 7.65. For the same compound, the “αSMA (Fluorescence)” value ([4]; Table 37 (broader dose-response), Short-term exposure, pirfenidone 10 mcg/mL) was 7.75, the “αSMA (Fluorescence)” value ([4]; Table 37 (broader dose-response), Short-term exposure, pirfenidone 100 mcg/mL) was 5.61 and the “αSMA (Fluorescence)” value ([4]; Table 37 (broader dose-response), Short-term exposure, pirfenidone 1000 mcg/mL) was 2.27. For the same compound, the T1/2 beta ([5]; aerosol 110 mg RDD, lung tissue, from plasma T1/2, Rubino et al., 2009 fasted-state) was 2.5 h, the T1/2 beta ([5]; aerosol 110 mg RDD, plasma, Rubino et al., 2009 fasted-state) was 2.5 h and the T1/2 beta ([5]; aerosol 154 mg RDD, lung tissue, from plasma T1/2, Rubino et al., 2009 fasted-state) was 2.5 h. The T1/2 beta ([5]; aerosol 154 mg RDD, plasma, Rubino et al., 2009 fasted-state) was 2.5 h, the T1/2 beta ([5]; aerosol 185 mg RDD, lung tissue, from plasma T1/2, Rubino et al., 2009 fasted-state) was 2.5 h and the T1/2 beta ([5]; aerosol 185 mg RDD, plasma, Rubino et al., 2009 fasted-state) was 2.5 h. For the same compound, the “AUC over 0-18 hours” value ([5]; oral 801 mg fasted-state) was 67700 ng·h/mL, the Cmax ([5]; oral 801 mg fasted-state) was 14.2 microgram/mL and the “AUC over 0-18 hours” value ([5]; oral 801 mg fed-state) was 58900 ng·h/mL. For the same compound, the Cmax ([5]; oral 801 mg fed-state) was 7.9 microgram/mL, the T1/2 beta ([5]; oral 801 mg fasted-state, lung tissue, from plasma T1/2, Rubino et al., 2009) was 2.5 h and the T1/2 beta ([5]; oral 801 mg fasted-state, plasma, Rubino et al., 2009) was 2.5 h. The T1/2 beta ([5]; oral 801 mg fed-state, lung tissue, from plasma T1/2, Rubino et al., 2009) was 2.4 h, the T1/2 beta ([5]; oral 801 mg fed-state, plasma, Rubino et al., 2009) was 2.4 h and the “contribution to pirfenidone metabolism” value (CYP2C9) was “less than 13%”.
